*1 amine or outer side, *2 acyl side, *3 side chain or, on linkers, in order; H or OH if unused. Bridges are numbered along the chain shown (N, C = ends). Primed or numbered codes have the meaning given here. [ ]: non-standard residue; d: D form. 4‑Aminomethyl‑phenylacetyl = 4-aminomethyl-phenylacetyl unit, its amine closes the lactam, O=C(Cc1ccc(CN[*:1])cc1)[*:2]; Q(pyrrolidin)″ = (2S)-2-amino-5-oxo-5-pyrrolidin-1-yl-pentanoic acid, O=C(CC[C@H](N[*:1])C(=O)[*:2])N1CCCC1; αMeAla(3-pyridyl) = C[C@](N)(Cc1cccnc1)C(=O)O; 2Nal = N[C@@H](Cc1ccc2ccccc2c1)C(=O)O; AEF = NCCOc1ccc(C[C@H](N)C(=O)O)cc1; 3Pal = N[C@@H](Cc1cccnc1)C(=O)O; αMeL = CC(C)C[C@](C)(N)C(=O)O; Iso‑Dab = not defined here; Dab = NCC[C@H](N)C(=O)O
T1: Nluc-IL23R fusion protein (human, UniProt Q5VWK5 22-629)
T1 construct: range 22-629; expressed with a secretion signal in HEK293 cells; used as crude membrane preparation; also called hIL-23R; human IL-23R; not shown: Nanoluc protein from the expression plasmid N1371 (Promega), N-terminal of IL-23R
T1 sequence (looked up): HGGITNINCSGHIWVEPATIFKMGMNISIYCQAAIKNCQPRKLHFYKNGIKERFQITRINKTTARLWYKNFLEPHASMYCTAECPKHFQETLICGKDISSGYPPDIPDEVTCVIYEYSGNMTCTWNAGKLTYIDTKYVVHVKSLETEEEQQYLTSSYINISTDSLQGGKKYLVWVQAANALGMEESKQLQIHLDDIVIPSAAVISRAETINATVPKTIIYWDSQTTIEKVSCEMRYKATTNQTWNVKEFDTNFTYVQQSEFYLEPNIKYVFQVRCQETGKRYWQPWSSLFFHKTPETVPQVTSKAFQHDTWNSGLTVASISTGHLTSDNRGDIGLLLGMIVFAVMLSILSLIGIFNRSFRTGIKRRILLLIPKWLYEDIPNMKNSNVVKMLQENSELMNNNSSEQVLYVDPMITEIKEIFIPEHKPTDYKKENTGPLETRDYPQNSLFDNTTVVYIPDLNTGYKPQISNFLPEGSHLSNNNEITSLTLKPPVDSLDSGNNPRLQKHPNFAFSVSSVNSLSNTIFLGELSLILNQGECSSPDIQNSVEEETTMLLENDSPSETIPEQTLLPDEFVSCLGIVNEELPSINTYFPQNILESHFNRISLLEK

T2: human IL-23R endogenously expressed on DB cells (human, UniProt Q5VWK5 24-629)
T2 sequence (looked up): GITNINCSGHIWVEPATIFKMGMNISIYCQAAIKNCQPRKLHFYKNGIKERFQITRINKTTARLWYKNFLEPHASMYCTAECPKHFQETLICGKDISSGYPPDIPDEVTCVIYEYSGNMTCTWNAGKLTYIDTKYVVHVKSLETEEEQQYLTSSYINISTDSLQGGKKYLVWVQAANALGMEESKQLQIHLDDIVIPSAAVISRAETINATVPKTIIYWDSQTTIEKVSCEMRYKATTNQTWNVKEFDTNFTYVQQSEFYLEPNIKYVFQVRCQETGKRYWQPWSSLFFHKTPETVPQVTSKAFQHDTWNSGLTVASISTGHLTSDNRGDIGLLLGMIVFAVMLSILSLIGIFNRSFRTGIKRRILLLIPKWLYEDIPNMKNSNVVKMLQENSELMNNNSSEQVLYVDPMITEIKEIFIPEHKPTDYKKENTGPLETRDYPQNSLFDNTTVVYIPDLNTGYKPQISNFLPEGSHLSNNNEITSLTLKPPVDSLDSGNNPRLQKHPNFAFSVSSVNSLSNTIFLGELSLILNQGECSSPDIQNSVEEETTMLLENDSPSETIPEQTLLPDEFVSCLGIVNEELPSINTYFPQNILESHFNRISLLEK


Columns and labels:
[1] = test system: porcine pepsin (P7125, Sigma Aldrich); test: SGF: sodium chloride, HCl, pH 1.2, with porcine pepsin (3.2 g/L); conditions: 37 °C, up to 4 hours
[2] = test system: porcine pancreatin (P1625, Sigma Aldrich); test: SIF: monobasic potassium phosphate, pH 6.8, with porcine pancreatin (10 g/L); conditions: 37 °C, up to 4 hours
[3] = target: T1, Nluc-IL23R fusion protein; test: BRET competition vs TAMRA-labelled peptide, Nluc-IL23R membranes
[4] = target: T2, human IL-23R endogenously expressed on …; test: cell-based or functional assay

Row | not cleaved [1] | not cleaved [2] | Molecule | also measured
1 | 98% remaining after 4 h | 92% remaining after 4 h | [4-Aminomethyl-phenylacetyl](1c)*AE(2c)WQ[Dab](2c)[7-AzaTrp][2-Nal][Aib]E(1c)[Dab][3-(3-Pyridyl)-Ala] | 
2 |  | 92% remaining after 4 h | [4-Aminomethyl-phenylacetyl](1c)*AE(2c)WQ[Dab](2c)[7-F-Trp][2-Nal][Aib]E(1c)[Dab][3-(3-Pyridyl)-Ala] | 
3 | 103% remaining after 4 h | 90% remaining after 4 h | [4-Aminomethyl-phenylacetyl](1c)*AE(2c)WQ[Dab](2c)[Y(2-aminoethoxy)][2-Nal][2-Me-Leu]E(1c)[Dab][3-(3-Pyridyl)-Ala]-[NHMe] | 
4 | 102% remaining after 4 h | 95% remaining after 4 h | [4-Aminomethyl-phenylacetyl](1c)*AE(2c)WQ[Dab](2c)[hPhe][2-Nal][Aib]E(1c)[Dab][3-(3-Pyridyl)-Ala] | 
5 | 104% remaining after 4 h | 109% remaining after 4 h | [4-Aminomethyl-phenylacetyl](1c)*SE(2c)WQ[Dab](2c)[Y(2-aminoethoxy)][2-Nal][2-Me-Leu]E(1c)[Dab][2-Me-3-(3-Pyridyl)-Ala]-[NH2] | 
6 | 90% remaining after 4 h |  | [4-Aminomethyl-phenylacetyl](1c)*SE(2c)WQ[Dab](2c)[Y(2-aminoethoxy)][2-Nal][2-Me-Leu]E(1c)[Dab][3-(3-Pyridyl)-Ala]-[NH2] | cleaved bond [2]: Dab12-3Pal13, major
7 |  | 105% remaining after 4 h | [4-Aminomethyl-phenylacetyl](1c)*SE(2c)WQ[Dab](2c)[Y(2-aminoethoxy)][2-Nal][2-Me-Leu]E(1c)[Dab][3-(3-Pyridyl)-Ala]-[NHMe] | 
8 | 95% remaining after 4 h | 105% remaining after 4 h | [4-Aminomethyl-phenylacetyl](1c)*SE(2c)WQ[Dab](2c)[Y(2-aminoethoxy)][2-Nal][2-Me-Leu]E(1c)[Dab][3-(3-Pyridyl)-Ala][Sar]-[NH2] | 
9 | 97% remaining after 4 h | 102% remaining after 4 h | [4-Aminomethyl-phenylacetyl](1c)*SE(2c)WQ[Dab](2c)[Y(2-aminoethoxy)][2-Nal][2-Me-Leu]E(1c)[Dab][3-(3-Pyridyl)-Ala][beta-hLeu]-[NH2] | 
10 | 94% remaining after 4 h | 96% remaining after 4 h | [4-Aminomethyl-phenylacetyl](1c)*SE(2c)WQ[Dab](2c)[Y(2-aminoethoxy)][2-Nal][2-Me-Leu]E(1c)[THP][3-(3-Pyridyl)-Ala] | 
11 | 99% remaining after 4 h | 91% remaining after 4 h | [4-Aminomethyl-phenylacetyl](1c)*SE(2c)W[Cit][Dab](2c)[Y(2-aminoethoxy)][2-Nal][2-Me-Leu]E(1c)[Dab][3-(3-Pyridyl)-Ala] | 
12 |  | 91% remaining after 4 h | [4-Aminomethyl-phenylacetyl](1c)*SE(2c)W[Dab(Ac)][Dab](2c)[Y(2-aminoethoxy)][2-Nal][2-Me-Leu]E(1c)[Dab][3-(3-Pyridyl)-Ala] | 
13 | 110% remaining after 4 h | 110% remaining after 4 h | [4-Aminomethyl-phenylacetyl](1c)*SE(2c)W[Orn][Dab](2c)[Y(2-aminoethoxy)][2-Nal][2-Me-Leu]E(1c)[Dab][3-(3-Pyridyl)-Ala] | 
14 |  | 94% remaining after 4 h | [4-Aminomethyl-phenylacetyl](1c)*SE(2c)W[Q(2Me)][Dab](2c)[Y(2-aminoethoxy)][2-Nal][2-Me-Leu]E(1c)[Dab][3-(3-Pyridyl)-Ala] | 
15 | 90% remaining after 4 h | 92% remaining after 4 h | [4-Aminomethyl-phenylacetyl](1c)*SE(2c)W[Q(Me)][Dab](2c)[Y(2-aminoethoxy)][2-Nal][2-Me-Leu]E(1c)[Dab][3-(3-Pyridyl)-Ala] | 
16 |  |  | [4‑Aminomethyl‑phenylacetyl]SEWQ[Dab][AEF][2Nal][αMeL]E[Iso‑Dab][αMeAla(3-pyridyl)]-NH2 (lactam N-10, 3-6; reading uncertain; also: iso-Dab11 joined via side-chain amine) [Compound 15] | % displacement (hIL-23R binding) [3]: 96%; hIL-23 (pSTAT3) antagonist % inhibition [4]: 97%; hIL-23 (pSTAT3) antagonist IC50 [4]: 12 nM
17 |  |  | [4‑Aminomethyl‑phenylacetyl]AEWQ[Dab][AEF][2Nal][αMeL]E[Dab][3Pal]-NHMe (lactam N-10, 3-6; SMILES CNC(=O)[C@H](Cc1cccnc1)NC(=O)[C@H](CCN)NC(=O)[C@@H]1CCC(=O)NCc2ccc(cc2)CC(=O)N[C@@H](C)C(=O)N[C@H]2CCC(=O)NCC[C@H](NC(=O)[C@H](CCC(N)=O)NC(=O)[C@H](Cc3c[nH]c4ccccc34)NC2=O)C(=O)N[C@@H](Cc2ccc(OCCN)cc2)C(=O)N[C@@H](Cc2ccc3ccccc3c2)C(=O)N[C@@](C)(CC(C)C)C(=O)N1) [Compound 20] | % displacement (hIL-23R binding) [3]: 97%; hIL-23 (pSTAT3) antagonist % inhibition [4]: 101%; hIL-23 (pSTAT3) antagonist IC50 [4]: 26 pM
18 |  |  | [4‑Aminomethyl‑phenylacetyl]SEW[Q(pyrrolidin)″][Dab][AEF][2Nal][αMeL]E[Dab]-NH2 (lactam N-10, 3-6) [Ref 146] | % displacement (hIL-23R binding) [3]: 105%; hIL-23 (pSTAT3) antagonist % inhibition [4]: 98%; hIL-23 (pSTAT3) antagonist IC50 [4]: 42 nM
19 |  |  | [4‑Aminomethyl‑phenylacetyl]SEWQ[Dab][AEF][2Nal][αMeL]E[Dab][H(Me)]-NH2 (lactam N-10, 3-6) [Compound 14] | % displacement (hIL-23R binding) [3]: 102%; IC50 [3]: 0.11 nM; hIL-23 (pSTAT3) antagonist % inhibition [4]: 99%; hIL-23 (pSTAT3) antagonist IC50 [4]: 7.2 nM
